Experimental data from ChEMBL document CHEMBL1201862, “PubChem BioAssay data set” (2004).
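Following 48 hours of exposure in 96-well plates, responses at five concentrations were used to interpolate endpoints linearly. The concentration for 50% growth inhibition is given as GI50.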 The source made the active and inactive calls. No stated cut-off is given here; in the data, active = GI50 up to about 1.1 µM and inactive = higher.

Tests used:
Test in all cases: inhibition of tumour cell growth, NCI panel, 48 h
NCI-H460 = tested on: NCI-H460
OVCAR-5 = tested on: OVCAR-5
SNB-75 = tested on: SNB-75
T47D = tested on: T47D
U-251 = tested on: U-251
OVCAR-3 = tested on: OVCAR-3
SK-OV-3 = tested on: SK-OV-3
SW-620 = tested on: SW-620
A549 = tested on: A549
HCC 2998 = tested on: HCC 2998
PC-3 = tested on: PC-3
HCT-15 = tested on: HCT-15
786-0 = tested on: 786-0
MDA-MB-435 = tested on: MDA-MB-435
IGROV-1 = tested on: IGROV-1
EKVX = tested on: EKVX
SK-MEL-28 = tested on: SK-MEL-28
SF-268 = tested on: SF-268
UACC-257 = tested on: UACC-257
BT-549 = tested on: BT-549
UO-31 = tested on: UO-31
OVCAR-8 = tested on: OVCAR-8
SK-MEL-5 = tested on: SK-MEL-5
HL-60 = tested on: HL-60
HT-29 = tested on: HT-29
ACHN = tested on: ACHN
SNB-19 = tested on: SNB-19
MDA-MB-231 = tested on: MDA-MB-231
M14 = tested on: M14
HCT-116 = tested on: HCT-116
HOP-92 = tested on: HOP-92
Hs-578T = tested on: Hs-578T
MCF7 = tested on: MCF7
RPMI-8226 = tested on: RPMI-8226
MOLT-4 = tested on: MOLT-4
K562 = tested on: K562
RXF 393 = tested on: RXF 393
NCI-H522 = tested on: NCI-H522
OVCAR-4 = tested on: OVCAR-4
TK-10 = tested on: TK-10
NCI-H226 = tested on: NCI-H226
COLO 205 = tested on: COLO 205
SF-295 = tested on: SF-295
DU-145 = tested on: DU-145
CAKI-1 = tested on: CAKI-1
KM12 = tested on: KM12
NCI-H23 = tested on: NCI-H23
NCI/ADR-RES = tested on: NCI/ADR-RES
SN12C = tested on: SN12C
Malme-3M = tested on: Malme-3M
SF-539 = tested on: SF-539
SK-MEL-2 = tested on: SK-MEL-2
HOP-62 = tested on: HOP-62
UACC-62 = tested on: UACC-62
SR = tested on: SR
CCRF-CEM = tested on: CCRF-CEM
LOX IMVI = tested on: LOX IMVI
MDA-N = tested on: MDA-N

For COC(=O)C1C(O)CCC2CN3CCc4c([nH]c5ccccc45)C3CC21 (stereo not given), the GI50 (NCI-H460) was > 100 µM (inactive), the GI50 (OVCAR-5) was > 100 µM (inactive) and the GI50 (SNB-75) was > 100 µM (inactive). The GI50 (T47D) was > 100 µM (inactive), the GI50 (U-251) was > 100 µM (inactive) and the GI50 (OVCAR-3) was > 100 µM (inactive). The GI50 (SK-OV-3) was > 100 µM (inactive), the GI50 (SW-620) was > 100 µM (inactive) and the GI50 (A549) was > 100 µM (inactive). For the same compound, the GI50 (HCC 2998) was 59.4 µM (inactive), the GI50 (PC-3) was > 100 µM (inactive) and the GI50 (HCT-15) was > 100 µM. For the same compound, the GI50 (786-0) was > 100 µM (inactive), the GI50 (MDA-MB-435) was > 100 µM (inactive) and the GI50 (IGROV-1) was > 100 µM (inactive). The GI50 (EKVX) was > 100 µM (inactive), the GI50 (SK-MEL-28) was 76 µM (inactive) and the GI50 (SF-268) was > 100 µM (inactive). For the same compound, the GI50 (UACC-257) was > 100 µM (inactive), the GI50 (BT-549) was > 100 µM (inactive) and the GI50 (UO-31) was > 100 µM (inactive).
For Fc1ccccc1CN1COc2c(cc(Cl)c3cccnc23)C1, the GI50 (OVCAR-8) was 1.53 µM (inactive), the GI50 (SK-MEL-5) was 0.713 µM (active) and the GI50 (NCI-H460) was 0.533 µM (active). The GI50 (OVCAR-5) was 3.05 µM (inactive), the GI50 (SNB-75) was 1.56 µM (inactive) and the GI50 (T47D) was 3.6 µM (inactive). For the same compound, the GI50 (U-251) was 1.56 µM (inactive), the GI50 (HL-60) was 0.265 µM (active) and the GI50 (HT-29) was 7.85 µM (inactive). The GI50 (ACHN) was 0.533 µM (active), the GI50 (SNB-19) was 2.24 µM (inactive) and the GI50 (MDA-MB-231) was 0.422 µM (active). For the same compound, the GI50 (M14) was 2.05 µM (inactive), the GI50 (OVCAR-3) was 3.75 µM (inactive) and the GI50 (HCT-116) was 1.26 µM (inactive). For the same compound, the GI50 (SK-OV-3) was 6 µM (inactive), the GI50 (HOP-92) was 3.61 µM (inactive) and the GI50 (Hs-578T) was 3.15 µM (inactive). The GI50 (MCF7) was 3.33 µM (inactive), the GI50 (RPMI-8226) was < 10 nM (active) and the GI50 (SW-620) was 3.08 µM (inactive). The GI50 (A549) was 2.16 µM (inactive), the GI50 (MOLT-4) was 0.239 µM (active) and the GI50 (K562) was 1.3 µM (inactive). For the same compound, the GI50 (PC-3) was 1.44 µM (inactive), the GI50 (RXF 393) was 13.9 µM (inactive) and the GI50 (HCT-15) was 0.0165 µM. For the same compound, the GI50 (NCI-H522) was 2.68 µM (inactive), the GI50 (OVCAR-4) was 0.596 µM (active) and the GI50 (TK-10) was 3.09 µM (inactive). For the same compound, the GI50 (NCI-H226) was 0.624 µM (active), the GI50 (COLO 205) was 14.2 µM (inactive) and the GI50 (SF-295) was 0.726 µM (active). For the same compound, the GI50 (DU-145) was 2.62 µM (inactive), the GI50 (CAKI-1) was 1.65 µM (inactive) and the GI50 (KM12) was 2.23 µM (inactive). The GI50 (786-0) was 2.65 µM (inactive), the GI50 (NCI-H23) was 1.6 µM (inactive) and the GI50 (NCI/ADR-RES) was 0.0425 µM (active). The GI50 (MDA-MB-435) was 2.54 µM (inactive), the GI50 (IGROV-1) was 4.55 µM (inactive) and the GI50 (SN12C) was 0.215 µM (active). The GI50 (EKVX) was 0.378 µM (active), the GI50 (Malme-3M) was 2.28 µM (inactive) and the GI50 (SK-MEL-28) was 4.25 µM (inactive). For the same compound, the GI50 (SF-539) was 1.22 µM (inactive), the GI50 (SK-MEL-2) was 3.93 µM (inactive) and the GI50 (HOP-62) was 1.16 µM (inactive). For the same compound, the GI50 (SF-268) was 2.62 µM (inactive), the GI50 (UACC-257) was 2.51 µM (inactive) and the GI50 (UACC-62) was 0.427 µM (active). The GI50 (UO-31) was 0.653 µM (active) and the GI50 (SR) was 0.389 µM (active).
For COc1ccc(P2(=S)OC(C)(C)C(C)(C)O2)cc1, the GI50 (OVCAR-8) was > 100 µM (inactive), the GI50 (SK-MEL-5) was > 100 µM (inactive) and the GI50 (NCI-H460) was > 100 µM (inactive). For the same compound, the GI50 (OVCAR-5) was > 100 µM (inactive), the GI50 (SNB-75) was > 100 µM (inactive) and the GI50 (CCRF-CEM) was > 100 µM (inactive). The GI50 (T47D) was 6.93 µM (inactive), the GI50 (U-251) was > 100 µM (inactive) and the GI50 (HL-60) was > 100 µM (inactive). The GI50 (HT-29) was > 100 µM (inactive), the GI50 (ACHN) was > 100 µM (inactive) and the GI50 (SNB-19) was > 100 µM (inactive). The GI50 (MDA-MB-231) was > 100 µM (inactive), the GI50 (LOX IMVI) was > 100 µM (inactive) and the GI50 (M14) was > 100 µM (inactive). The GI50 (OVCAR-3) was > 100 µM (inactive), the GI50 (HCT-116) was > 100 µM (inactive) and the GI50 (HOP-92) was > 100 µM (inactive). The GI50 (Hs-578T) was > 100 µM (inactive), the GI50 (MCF7) was > 100 µM (inactive) and the GI50 (SW-620) was > 100 µM (inactive). For the same compound, the GI50 (A549) was > 100 µM (inactive), the GI50 (MOLT-4) was > 100 µM (inactive) and the GI50 (K562) was > 100 µM (inactive). The GI50 (PC-3) was > 100 µM (inactive), the GI50 (HCT-15) was > 100 µM and the GI50 (NCI-H522) was > 100 µM (inactive). The GI50 (OVCAR-4) was > 100 µM (inactive), the GI50 (TK-10) was > 100 µM (inactive) and the GI50 (NCI-H226) was > 100 µM (inactive). The GI50 (SF-295) was > 100 µM (inactive), the GI50 (MDA-N) was > 100 µM (inactive) and the GI50 (DU-145) was > 100 µM (inactive). The GI50 (CAKI-1) was 50.9 µM (inactive), the GI50 (KM12) was > 100 µM (inactive) and the GI50 (786-0) was > 100 µM (inactive). For the same compound, the GI50 (NCI-H23) was > 100 µM (inactive), the GI50 (NCI/ADR-RES) was > 100 µM (inactive) and the GI50 (MDA-MB-435) was > 100 µM (inactive). The GI50 (IGROV-1) was > 100 µM (inactive), the GI50 (SN12C) was > 100 µM (inactive) and the GI50 (EKVX) was > 100 µM (inactive). For the same compound, the GI50 (Malme-3M) was > 100 µM (inactive), the GI50 (SK-MEL-28) was > 100 µM (inactive) and the GI50 (SF-539) was > 100 µM (inactive). For the same compound, the GI50 (SK-MEL-2) was > 100 µM (inactive), the GI50 (HOP-62) was > 100 µM (inactive) and the GI50 (UACC-257) was > 100 µM (inactive). For the same compound, the GI50 (UACC-62) was > 100 µM (inactive), the GI50 (UO-31) was 17.5 µM (inactive) and the GI50 (SR) was > 100 µM (inactive).
